Values quoted from earlier work as cited in patent US20250170152A1, “Cannabinoid Dosage Form” (priority 2022, published 2025).
Read-outs that look alike come from different tables or passages of the source.

Experiments:
[1] = not given; remark: listed apart in the source
[2] = oral THC formulations
[3] = 20 mg/kg/day CBD groups, EMA LGS/DS Assessment Report (Epidiolex)
[4] = oral 800 mg CBD, eight subjects (Haney et al., 2016)

SMILES | TEAE decrease of appetite, incidence [3] [%] | weight loss, incidence [3] [%] | TEAE of diarrhoea, incidence (5-20 mg/kg/day, LGS/DS population (Epidiolex)) | TEAE of diarrhoea, incidence (25-50 mg/kg/day, TSC population, EMA TSC Assessment Report (Epidiolex)) | mean Cmax ([1]; one hour after oral capsule containing 5.4 mg CBD (Nadulski et al., 2005a)) [ng/mL] | mean Cmax ([1]; oral 10 mg CBD (Guy and Robson, 2004b)) [ng/mL] | mean Cmax [1, 4] [ng/mL] | mean Tmax [1, 4] [h] | time CBD remained detectable after administration ([1]; oral capsule 5.4 mg CBD (Nadulski et al., 2005b)) [h] | mean Cmax ([1]; oral capsule 5.4 mg CBD, subset (n=12) with standard breakfast meal 1 h after the capsules) [ng/mL] | delay to reach peak plasma concentration [2] [min]
C=C(C)C1CCC(C)=CC1c1c(O)cc(CCCCC)cc1O (centres unmarked) [CBD, 2-[3-methyl-6-(1-methylethenyl)-2-cyclohexen-1-yl]-5-pentyl-1,3-benzenediol] | 22 | 11 | 12.9-21.2% | 30.7-56.2% | 0.93 | 2.47 | 77.9 | 3.0 | 3 to 4 | 1.13 | 
CCCCCc1cc(O)c2c(c1)OC(C)(C)[C@@H]1CCC(C)=C[C@@H]21 [THC, delta-9-tetrahydrocannabinol] |  |  |  |  |  |  |  |  |  |  | ~120
